Assay results from ChEMBL document CHEMBL4043296 (J Med Chem, 2018).
Converted amounts (≈) assume the structure as drawn.

Experiments:
[1] = target: T1, D(4) dopamine receptor (Homo sapiens, UniProt P21917); assay: Antagonist activity at human SP/Myc epitope-tagged dopamine D4 receptor expressed in HEK293T cells assessed as inhibition of dopamine-induced RLuc8-fused Galphai1 activation preincubated for 15 mins followed by dopamine induction measured after 2 mins by BRET assay; type: cell-based, HEK-293T
T1 sequence (P21917 whole entry): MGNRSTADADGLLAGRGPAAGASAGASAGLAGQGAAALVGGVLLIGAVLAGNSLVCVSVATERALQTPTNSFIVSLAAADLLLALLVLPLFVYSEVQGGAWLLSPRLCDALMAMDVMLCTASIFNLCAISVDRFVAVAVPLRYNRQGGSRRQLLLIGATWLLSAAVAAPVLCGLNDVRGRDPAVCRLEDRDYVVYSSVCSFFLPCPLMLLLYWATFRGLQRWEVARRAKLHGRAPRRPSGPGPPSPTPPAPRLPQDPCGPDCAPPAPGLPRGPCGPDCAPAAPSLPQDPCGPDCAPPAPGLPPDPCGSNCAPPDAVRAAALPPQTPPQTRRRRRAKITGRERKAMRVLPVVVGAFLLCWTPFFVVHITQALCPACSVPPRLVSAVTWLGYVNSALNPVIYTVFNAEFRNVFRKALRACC

[2] = test system: MDR1; assay: Apparent passive permeability across apical to basolateral side in MDCK2 cells expressing MDR1 at 3 uM after 60 mins by mass spectroscopy; type: ADME, cell-based, Canis lupus familiaris, MDCK-II; details: dog, MDCK-MDR1
[3] = target: T2, Alpha-1D adrenergic receptor (Homo sapiens, UniProt P25100); assay: Displacement of [3H]prazosin from human recombinant alpha-1D adrenergic receptor expressed in CHO cell membranes after 30 mins by liquid scintillation counting method
T2 sequence (P25100 whole entry): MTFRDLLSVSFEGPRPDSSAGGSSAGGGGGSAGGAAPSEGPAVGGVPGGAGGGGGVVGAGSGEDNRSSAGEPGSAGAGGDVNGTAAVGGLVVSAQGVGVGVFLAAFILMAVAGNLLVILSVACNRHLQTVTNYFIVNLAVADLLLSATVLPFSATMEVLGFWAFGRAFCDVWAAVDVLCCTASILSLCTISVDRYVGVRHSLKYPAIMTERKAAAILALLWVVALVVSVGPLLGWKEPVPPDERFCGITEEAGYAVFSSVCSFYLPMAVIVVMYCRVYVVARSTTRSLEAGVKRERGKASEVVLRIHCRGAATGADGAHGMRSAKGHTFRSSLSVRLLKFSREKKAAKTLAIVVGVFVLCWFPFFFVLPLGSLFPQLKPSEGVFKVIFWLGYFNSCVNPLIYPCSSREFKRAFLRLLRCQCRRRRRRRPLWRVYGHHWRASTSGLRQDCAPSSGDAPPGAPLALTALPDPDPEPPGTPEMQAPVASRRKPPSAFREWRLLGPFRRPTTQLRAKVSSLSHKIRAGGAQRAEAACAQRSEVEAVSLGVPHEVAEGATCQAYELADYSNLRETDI

[4] = Half life in mouse liver microsomes at 0.5 uM preincubated for 30 mins followed by NADPH addition measured over 30 mins by HPLC-MS/MS method; type: ADME, microsome
[5] = target: T3, Muscarinic acetylcholine receptor M4 (Homo sapiens, UniProt P08173); assay: Displacement of [3H]NMS from human muscarinic M4 receptor expressed in CHO cell membranes after 2 hrs by liquid scintillation counting method
T3 sequence (P08173 whole entry): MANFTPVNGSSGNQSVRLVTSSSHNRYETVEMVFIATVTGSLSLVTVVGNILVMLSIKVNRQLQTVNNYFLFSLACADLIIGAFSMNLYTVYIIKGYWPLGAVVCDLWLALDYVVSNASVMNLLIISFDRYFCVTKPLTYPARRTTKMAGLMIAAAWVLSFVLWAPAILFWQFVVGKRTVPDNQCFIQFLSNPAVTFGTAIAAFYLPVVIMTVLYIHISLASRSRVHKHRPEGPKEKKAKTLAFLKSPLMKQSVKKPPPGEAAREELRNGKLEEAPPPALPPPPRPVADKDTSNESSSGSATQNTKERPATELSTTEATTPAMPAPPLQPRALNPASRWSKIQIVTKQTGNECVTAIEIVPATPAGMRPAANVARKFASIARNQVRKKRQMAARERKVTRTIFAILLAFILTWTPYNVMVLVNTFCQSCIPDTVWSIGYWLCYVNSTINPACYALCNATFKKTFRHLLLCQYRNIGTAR

[6] = Fraction unbound in mouse plasma at 0.5 uM by equilibrium dialysis method; type: ADME, cell-free
[7] = target: T1, D(4) dopamine receptor; assay: Antagonist activity at human SP/Myc epitope-tagged dopamine D4 receptor expressed in HEK293T cells assessed as inhibition of dopamine-induced mVenus-fused beta-arrestin2 recruitment preincubated for 15 mins followed by dopamine induction measured after 2 mins by BRET assay; type: cell-based, HEK-293T
[8] = test system: MDR1; assay: Apparent passive permeability across basolateral to apical side in MDCK2 cells expressing MDR1 at 3 uM after 60 mins by mass spectroscopy; type: ADME, cell-based, Canis lupus familiaris, MDCK-II; details: dog, MDCK-MDR1
[9] = Intrinsic clearance in mouse liver microsomes assessed per mg of protein at 0.5 uM preincubated for 30 mins followed by NADPH addition measured after 30 mins by HPLC-MS/MS method; type: ADME, microsome; details: read-out: CLH
[10] = target: D(2) dopamine receptor (Homo sapiens, UniProt P14416); assay: Displacement of [3H]N-methylspiperone from human dopamine D2 receptor expressed in HEK293 cell membranes after 1 hr by scintillation counting method
[11] = Kinetic solubility of the compound at pH 7.4 after 24 hrs by UPLC/UV/TOF-MS method; type: physicochemical; details: buffer, read-out: Kinetic_solubility
[12] = species on record: Homo sapiens; assay: Selectivity ratio of Ki for human dopamine D2 receptor to Ki for human dopamine D4 receptor
[13] = target: Beta-2 adrenergic receptor (Homo sapiens, UniProt P07550); assay: Displacement of [3H]CGP12177 from human recombinant beta2 adrenergic receptor expressed in HEK293 cell membranes after 90 mins by beta counting method
[14] = target: T4, Muscarinic acetylcholine receptor M4 (Homo sapiens) (UniProt P08173); assay: Agonist activity at human SP/Myc epitope-tagged muscarinic M4 receptor expressed in HEK293T cells assessed as RLuc8-fused Galphaq activation after 2 mins by BRET assay relative to carbachol; type: cell-based; details: HEK-293T
T4 sequence (whole entry): T3 sequence (P08173 whole entry)

[15] = target: Sodium-dependent serotonin transporter (Rattus norvegicus, UniProt P31652); assay: Displacement of [3H]-citalopram from SERT in Sprague-Dawley rat midbrain after 60 mins by scintillation counting method
[16] = target: Muscarinic acetylcholine receptor M3 (Homo sapiens, UniProt P20309); assay: Displacement of [3H]NMS from human muscarinic M3 receptor expressed in CHO cell membranes after 2 hrs by liquid scintillation counting method
[17] = target: T1, D(4) dopamine receptor; assay: Displacement of [3H]N-methylspiperone from human dopamine D4 receptor expressed in HEK293 cell membranes after 1 hr by scintillation counting method

Beta-2 adrenergic receptor, sequence (P07550 whole entry, the tested form may be a part): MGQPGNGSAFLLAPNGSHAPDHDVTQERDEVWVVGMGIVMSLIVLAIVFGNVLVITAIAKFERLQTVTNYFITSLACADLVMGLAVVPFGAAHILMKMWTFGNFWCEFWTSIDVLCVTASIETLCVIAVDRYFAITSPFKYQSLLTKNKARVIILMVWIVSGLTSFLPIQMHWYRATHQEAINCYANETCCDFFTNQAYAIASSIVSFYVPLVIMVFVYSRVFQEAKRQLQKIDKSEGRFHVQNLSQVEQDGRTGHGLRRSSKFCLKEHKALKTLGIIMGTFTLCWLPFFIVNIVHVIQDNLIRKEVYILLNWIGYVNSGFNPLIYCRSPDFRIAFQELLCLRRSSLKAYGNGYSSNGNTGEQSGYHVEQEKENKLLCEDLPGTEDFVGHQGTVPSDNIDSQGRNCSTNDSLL
D(2) dopamine receptor, sequence (P14416 whole entry): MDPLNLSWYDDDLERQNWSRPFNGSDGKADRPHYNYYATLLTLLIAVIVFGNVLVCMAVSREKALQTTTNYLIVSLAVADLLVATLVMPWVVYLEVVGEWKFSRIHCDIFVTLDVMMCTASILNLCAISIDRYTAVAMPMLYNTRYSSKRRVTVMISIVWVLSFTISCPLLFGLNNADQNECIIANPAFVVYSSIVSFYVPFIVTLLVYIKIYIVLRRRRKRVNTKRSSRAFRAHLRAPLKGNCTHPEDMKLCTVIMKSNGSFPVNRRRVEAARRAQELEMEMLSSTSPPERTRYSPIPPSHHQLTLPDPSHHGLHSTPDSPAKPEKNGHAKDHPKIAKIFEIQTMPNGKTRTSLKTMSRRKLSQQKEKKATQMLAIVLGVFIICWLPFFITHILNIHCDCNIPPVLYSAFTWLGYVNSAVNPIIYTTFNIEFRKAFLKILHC
Muscarinic acetylcholine receptor M3, sequence (P20309 whole entry): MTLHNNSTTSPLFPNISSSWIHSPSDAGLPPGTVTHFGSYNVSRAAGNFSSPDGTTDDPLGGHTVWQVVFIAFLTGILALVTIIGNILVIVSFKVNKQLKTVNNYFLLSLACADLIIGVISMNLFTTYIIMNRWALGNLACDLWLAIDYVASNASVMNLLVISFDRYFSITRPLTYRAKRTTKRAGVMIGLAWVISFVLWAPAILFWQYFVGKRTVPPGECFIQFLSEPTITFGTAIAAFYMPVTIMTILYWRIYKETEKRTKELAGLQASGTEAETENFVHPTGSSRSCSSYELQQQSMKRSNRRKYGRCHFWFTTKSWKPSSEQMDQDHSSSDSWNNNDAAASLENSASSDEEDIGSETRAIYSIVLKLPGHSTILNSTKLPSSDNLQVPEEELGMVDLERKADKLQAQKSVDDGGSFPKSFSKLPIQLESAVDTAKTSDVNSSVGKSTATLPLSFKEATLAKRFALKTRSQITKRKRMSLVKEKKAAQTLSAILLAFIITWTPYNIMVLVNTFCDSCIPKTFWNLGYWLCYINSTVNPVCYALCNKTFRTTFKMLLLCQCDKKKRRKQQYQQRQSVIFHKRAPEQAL
Sodium-dependent serotonin transporter, sequence (P31652 whole entry): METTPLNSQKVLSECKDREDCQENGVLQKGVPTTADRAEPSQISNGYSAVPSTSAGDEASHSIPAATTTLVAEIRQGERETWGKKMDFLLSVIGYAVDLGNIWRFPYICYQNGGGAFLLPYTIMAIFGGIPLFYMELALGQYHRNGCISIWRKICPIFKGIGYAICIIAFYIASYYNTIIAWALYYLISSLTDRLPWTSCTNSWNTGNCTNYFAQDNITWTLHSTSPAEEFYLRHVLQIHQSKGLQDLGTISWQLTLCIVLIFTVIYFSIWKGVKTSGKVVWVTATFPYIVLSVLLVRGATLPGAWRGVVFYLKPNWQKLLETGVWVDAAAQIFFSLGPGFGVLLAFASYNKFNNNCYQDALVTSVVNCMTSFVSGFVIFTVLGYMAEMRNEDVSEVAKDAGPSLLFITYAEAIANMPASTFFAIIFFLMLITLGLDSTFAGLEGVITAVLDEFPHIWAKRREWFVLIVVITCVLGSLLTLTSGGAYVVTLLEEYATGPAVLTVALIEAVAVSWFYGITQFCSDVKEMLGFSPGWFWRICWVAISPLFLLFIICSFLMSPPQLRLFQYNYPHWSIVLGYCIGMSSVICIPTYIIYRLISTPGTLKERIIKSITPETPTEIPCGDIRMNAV

Row | Compound | IC50 [1] | Papp A→B at 1 h, 3 µM [2] | Ki [3] | half-life at 0.5 µM [4] | Ki [5] | fraction unbound at 0.5 µM [6] | IC50 [7] | Papp B→A at 1 h, 3 µM [8] | microsomal CLint at 0.5 µM [9] | Ki [10] | solubility kinetic at 24 h [11] | Ratio Ki [12] | Ki [13] | Emax [14] | Ki [15] | Ki [16] | Ki [17]
1 | O=C1CCc2ccccc2N1CCCN1CCC(Cc2ccccc2)CC1 | 170 nM | 10.9 ×10⁻⁶ cm/s | 302 nM | 3.5 min | 724 nM | 0.1 | 575 nM | 20.9 ×10⁻⁶ cm/s | 396 µL/min/mg | 912 nM | 477 µM (≈ 173 µg/mL) | 724 | 9550 nM | 24% | 46.8 nM | 3020 nM | 1.26 nM
2 | O=C1CCc2ccccc2N1CCCN1CCN(c2ccccc2)CC1 | 9.77 nM | 16.2 ×10⁻⁶ cm/s | 91.2 nM | 8.71 min | 9330 nM | 0.097 | 0.724 nM | 19.7 ×10⁻⁶ cm/s | 159 µL/min/mg | 1100 nM | 520 µM (≈ 182 µg/mL) | 380 | 35500 nM | 17% | 5010 nM | 17800 nM | 2.88 nM
